“And” between values parts separate entries of the source, which are not always exact repeats. Equal values may be shown once.
Test system: 874868-142-R-J2-PDC complex spheroids, growth % test/control
Experiment: Anticancer human tumor 874868-142-R-J2-PDC patient-derived head and neck squamous carcinoma cell line growth inhibition [CLK]
Details: for viability, T/C: stronger effect = lower value
In short: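 Patient-derived tumor cells grown as complex spheroids with HUVEC endothelial cells and mesenchymal stem cells, treated with drug combinations. Concentrations descend in half-log steps from near clinical Cmax, or from 10 microM if Cmax unknown.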

[1] = curve of first compound, second compound 0.0316 µM
[2] = curve of first compound, second compound 0.1 µM
[3] = curve of first compound, second compound 0.316 µM
[4] = curve of first compound, second compound 1 µM
[5] = curve of first compound, second compound 3.16 µM
[6] = curve of first compound, second compound 10 µM
[7] = second compound 0.0316 µM, first compound 0.00316 µM
[8] = second compound 0.0316 µM, first compound 0.01 µM
[9] = second compound 0.0316 µM, first compound 0.0316 µM
[10] = second compound 0.0316 µM, first compound 0.1 µM
[11] = second compound 0.0316 µM, first compound 0.316 µM
[12] = second compound 0.0316 µM, first compound 1 µM
[13] = second compound 0.1 µM, first compound 0.00316 µM
[14] = second compound 0.1 µM, first compound 0.01 µM
[15] = second compound 0.1 µM, first compound 0.0316 µM
[16] = second compound 0.1 µM, first compound 0.1 µM
[17] = second compound 0.1 µM, first compound 0.316 µM
[18] = second compound 0.1 µM, first compound 1 µM
[19] = second compound 0.316 µM, first compound 0.00316 µM
[20] = second compound 0.316 µM, first compound 0.01 µM
[21] = second compound 0.316 µM, first compound 0.0316 µM
[22] = second compound 0.316 µM, first compound 0.1 µM
[23] = second compound 0.316 µM, first compound 0.316 µM
[24] = second compound 0.316 µM, first compound 1 µM
[25] = second compound 1 µM, first compound 0.00316 µM
[26] = second compound 1 µM, first compound 0.01 µM
[27] = second compound 1 µM, first compound 0.0316 µM
[28] = second compound 1 µM, first compound 0.1 µM
[29] = second compound 1 µM, first compound 0.316 µM
[30] = second compound 1 µM, first compound 1 µM
[31] = second compound 3.16 µM, first compound 0.00316 µM
[32] = second compound 3.16 µM, first compound 0.01 µM
[33] = second compound 3.16 µM, first compound 0.0316 µM
[34] = second compound 3.16 µM, first compound 0.1 µM
[35] = second compound 3.16 µM, first compound 0.316 µM
[36] = second compound 3.16 µM, first compound 1 µM
[37] = second compound 10 µM, first compound 0.00316 µM
[38] = second compound 10 µM, first compound 0.01 µM
[39] = second compound 10 µM, first compound 0.0316 µM
[40] = second compound 10 µM, first compound 0.1 µM
[41] = second compound 10 µM, first compound 0.316 µM
[42] = second compound 10 µM, first compound 1 µM
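Note: spheroids exposed to the compounds for 7 days.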
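Throughout, for viability, T/C: 100% = DMSO vehicle control viability.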

## CCN1CCN(Cc2ccc(Nc3ncc(F)c(-c4cc(F)c5nc(C)n(C(C)C)c5c4)n3)nc2)CC1 + CNC(=O)c1ccc(Nc2nc(OC3CCCC3)c3c(-c4ccc5nc(C)oc5c4)c[nH]c3n2)c(OC)c1
[1]
  IC50: > 1000 nM
[2]
  IC50: > 1000 nM
[3]
  IC50: > 1000 nM
[4]
  IC50: < 3.16 nM
[5]
  IC50: < 3.16 nM
[6]
  IC50: < 3.16 nM
[7]
  viability, T/C: 96.9%
[8]
  viability, T/C: 103%
[9]
  viability, T/C: 95.2%
[10]
  viability, T/C: 100%
[11]
  viability, T/C: 121%
[12]
  viability, T/C: 113%
[13]
  viability, T/C: 106%
[14]
  viability, T/C: 91.8%
[15]
  viability, T/C: 94.5%
[16]
  viability, T/C: 81.6%
[17]
  viability, T/C: 109%
[18]
  viability, T/C: 113%
[19]
  viability, T/C: 59.4%
[20]
  viability, T/C: 62.7%
[21]
  viability, T/C: 56.2%
[22]
  viability, T/C: 64.6%
[23]
  viability, T/C: 84.8%
[24]
  viability, T/C: 99.9%
[25]
  viability, T/C: 46.2%
[26]
  viability, T/C: 44.8%
[27]
  viability, T/C: 44.4%
[28]
  viability, T/C: 49.3%
[29]
  viability, T/C: 67.9%
[30]
  viability, T/C: 68.7%
[31]
  viability, T/C: 41.9%
[32]
  viability, T/C: 50.8%
[33]
  viability, T/C: 41.5%
[34]
  viability, T/C: 38.5%
[35]
  viability, T/C: 50.8%
[36]
  viability, T/C: 72.5%
[37]
  viability, T/C: 46.2%
[38]
  viability, T/C: 40.5%
[39]
  viability, T/C: 56%
[40]
  viability, T/C: 45.6%
[41]
  viability, T/C: 66.8%
[42]
  viability, T/C: 71.2%

## CC1COCCN1c1cc(C2(S(C)(=N)=O)CC2)nc(-c2ccnc3[nH]ccc23)n1 (stereo unspecified)
Compound 0.0316 µM
  viability, T/C: 93.5% and 84.9%
Compound 0.1 µM
  viability, T/C: 91.8% and 114%
Compound 0.316 µM
  viability, T/C: 82.2% and 76%
Compound 1 µM
  viability, T/C: 63.7% and 61.2%
Compound 3.16 µM
  viability, T/C: 32.2% and 49%
Compound 10 µM
  viability, T/C: 28.2% and 38.6%
Curve of compound
  IC50: 1640 nM and 2160 nM

## CCN1CCN(Cc2ccc(Nc3ncc(F)c(-c4cc(F)c5nc(C)n(C(C)C)c5c4)n3)nc2)CC1 + CN1CCN(c2cc(C(=O)Nc3cc4cc(-c5cnn(C)c5)ccc4cn3)ccn2)CC1
[1]
  IC50: > 1000 nM
[2]
  IC50: > 1000 nM
[3]
  IC50: < 3.16 nM
[4]
  IC50: < 3.16 nM
[5]
  IC50: < 3.16 nM
[6]
  IC50: < 3.16 nM
[7]
  viability, T/C: 82.8%
[8]
  viability, T/C: 65%
[9]
  viability, T/C: 82.2%
[10]
  viability, T/C: 89%
[11]
  viability, T/C: 72%
[12]
  viability, T/C: 110%
[13]
  viability, T/C: 85.4%
[14]
  viability, T/C: 66.9%
[15]
  viability, T/C: 54.9%
[16]
  viability, T/C: 66.8%
[17]
  viability, T/C: 62.5%
[18]
  viability, T/C: 91%
[19]
  viability, T/C: 22.7%
[20]
  viability, T/C: 22.2%
[21]
  viability, T/C: 25.9%
[22]
  viability, T/C: 23.1%
[23]
  viability, T/C: 43.9%
[24]
  viability, T/C: 49.6%
[25]
  viability, T/C: 0.58%
[26]
  viability, T/C: 0.34%
[27]
  viability, T/C: 0.43%
[28]
  viability, T/C: 0.43%
[29]
  viability, T/C: 0.48%
[30]
  viability, T/C: 0.58%
[31]
  viability, T/C: 0.3%
[32]
  viability, T/C: 2.83%
[33]
  viability, T/C: 0.23%
[34]
  viability, T/C: 0.83%
[35]
  viability, T/C: 0.56%
[36]
  viability, T/C: 1%
[37]
  viability, T/C: 0.7%
[38]
  viability, T/C: 2.35%
[39]
  viability, T/C: 0.16%
[40]
  viability, T/C: 0.16%
[41]
  viability, T/C: 0.18%
[42]
  viability, T/C: 4.41%
